From patent publication US7932262B2 (Novartis AG, priority 2006, dated 2011)

How the values were obtained:
[1] = molecular target: T1, PDK1 kinase (Homo sapiens, UniProt O15530); test: PDK1 Kinase Alpha Screen Assay; assay type: biochemical; conditions: read-out: PDK1 IC50
T1 sequence (O15530 1-556): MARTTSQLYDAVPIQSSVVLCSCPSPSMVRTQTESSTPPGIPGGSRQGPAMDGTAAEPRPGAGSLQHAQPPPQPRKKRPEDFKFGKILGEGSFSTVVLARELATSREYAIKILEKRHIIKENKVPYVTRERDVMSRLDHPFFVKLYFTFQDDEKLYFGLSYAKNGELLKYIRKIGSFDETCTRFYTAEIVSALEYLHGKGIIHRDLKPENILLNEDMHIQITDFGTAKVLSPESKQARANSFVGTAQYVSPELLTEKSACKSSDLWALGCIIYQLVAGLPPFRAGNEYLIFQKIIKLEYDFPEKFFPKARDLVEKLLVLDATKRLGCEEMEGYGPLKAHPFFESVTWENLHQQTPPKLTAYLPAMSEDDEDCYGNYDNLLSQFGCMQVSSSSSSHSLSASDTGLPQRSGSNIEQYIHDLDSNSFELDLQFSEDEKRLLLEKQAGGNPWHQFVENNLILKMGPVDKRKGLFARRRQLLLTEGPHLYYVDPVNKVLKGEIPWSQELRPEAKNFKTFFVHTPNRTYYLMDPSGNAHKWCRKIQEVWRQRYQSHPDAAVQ
Procedure, shortened: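 Compound in DMSO added to PDK1-4 peptide; PDK1/ATP mix starts reaction (final 50 nM peptide, 10 uM ATP). Runs 3-18 hours, stopped with 90 mM EDTA buffer. Antibody/bead mix added, developed overnight at room temperature, then AlphaScreen signal read.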

[2] = tested on: A2780 cells; test: Cell Proliferation Assay (Cell Titer Glo), A2780; assay type: cell-based; conditions: Homo sapiens, 72 h; A2780 cells, 3 days incubation; read-out: CPEC50 A2780
Procedure: IV. Cell Proliferation Assay Protocol:
A2780, PC-3, or PC3MM cells were seeded at 1000 cells/well in 100 μL/well (10.000 cells/mL) growth media in 96-well plates. Cells were allowed to adhere to the bottom of plates for 3-5 hours in a 37° C. 5% CO2 incubator. Compounds were dissolved in DMSO and then transferred to the cell plates. The cells were incubated with the compounds for 3 days in a 37° C. 5% CO2 incubator. The growth medium containing the compounds was then removed from the cells and fresh medium was added, followed by 100 μL of Cell Titer Glo assay reagent (Promega). This mixture was shaken for 1 minute and then incubated without shaking for 10 minutes. Activity determinations for the compounds were made by detection on a Trilux Instrument.

IC50 [1] [µM] | EC50 [2] [µM] | Structure (SMILES)
< 5 | 5 to 10 | Nc1cc(-c2cccc3cnc(Nc4ccc(S(N)(=O)=O)cc4)nc23)ccn1 [Compound 109, 4-[8-(2-Amino-pyridin-4-yl)-quinazolin-2-ylamino]-benzenesulfonamide]
< 5 | < 5 | NS(=O)(=O)c1ccc(Nc2ncc3cccc(-c4ccccc4)c3n2)cc1 [Compound 110, 4-(8-Phenyl-quinazolin-2-ylamino)-benzenesulfonamide]
< 5 | 5 to 10 | NC(=O)c1ccc(-c2ccc3cnc(Nc4ccc(S(N)(=O)=O)cc4)nc3c2)cc1F [Compound 112, 2-Fluoro-4-[2-(4-sulfamoyl-phenylamino)-quinazolin-7-yl]-benzamide]
< 5 | < 5 | COc1cc(-c2cccc3cnc(Nc4ccc(S(N)(=O)=O)cc4)nc23)c(Cl)cn1 [Compound 117, 4-[8-(5-Chloro-2-methoxy-pyridin-4-yl)-quinazolin-2-ylamino]-benzenesulfonamide]
< 5 | 5 to 10 | NC(=O)c1cccc(-c2ccc3cnc(Nc4ccc(S(N)(=O)=O)cc4)nc3c2)c1 [Compound 123, 3-[2-(4-Sulfamoyl-phenylamino)-quinazolin-7-yl]-benzamide]
< 5 | 5 to 10 | NC(=O)c1ccc(-c2ccc3cnc(Nc4ccc(S(N)(=O)=O)cc4)nc3c2)cc1 [Compound 124, 4-[2-(4-Sulfamoyl-phenylamino)-quinazolin-7-yl]-benzamide]
< 5 | < 5 | Nc1ccc(-c2ccc3cnc(Nc4ccc(S(N)(=O)=O)cc4)nc3c2)cn1 [Compound 130, 4-[7-(6-Amino-pyridin-3-yl)-quinazolin-2-ylamino]-benzenesulfonamide]
< 5 | 5 to 10 | NC(=O)c1ccc(-c2ccc3cnc(Nc4ccc(S(N)(=O)=O)cc4)nc3c2)cn1 [Compound 131, 5-[2-(4-Sulfamoyl-phenylamino)-quinazolin-7-yl]-pyridine-2-carboxylic acid amide]
< 5 | < 5 | NS(=O)(=O)c1ccc(Nc2ncc3ccc(-c4cn[nH]c4)cc3n2)cc1 [Compound 132, 4-[7-(1H-Pyrazol-4-yl)-quinazolin-2-ylamino]-benzenesulfonamide]
< 5 | 5 to 10 | NS(=O)(=O)c1ccc(Nc2ncc3ccc(-c4ccc(C(=O)N5CCOCC5)cc4)cc3n2)cc1 [Compound 139, 4-{7-[4-(Morpholine-4-carbonyl)-phenyl]-quinazolin-2-ylamino}-benzenesulfonamide]

Further lines, the molecule ahead of its results:

Structure (SMILES) | IC50 [1] [µM] | EC50 [2] [µM]
NS(=O)(=O)c1ccc(Nc2ncc3cccc(-c4ccnc(N5CCOCC5)c4)c3n2)cc1 [Compound 105, 4-[8-(2-Morpholin-4-yl-pyridin-4-yl)-quinazolin-2-ylamino]-benzenesulfonamide] | < 5 | 5 to 10
CN1CCN(c2cc(-c3cccc4cnc(Nc5ccc(S(N)(=O)=O)cc5)nc34)ccn2)CC1 [Compound 106, 4-{8-[2-(4-Methyl-piperazin-1-yl)-pyridin-4-yl]-quinazolin-2-ylamino}-benzenesulfonamide] | < 5 | < 5
NS(=O)(=O)c1ccc(Nc2ncc3cccc(-c4ccnc(N5CCS(=O)(=O)CC5)c4)c3n2)cc1 [Compound 107, 4-{8-[2-(1,1-Dioxo-1 lambda*6*-thiomorpholin-4-yl)-pyridin-4-yl]-quinazolin-2-ylamino}-benzenesulfonamide] | < 5 | < 5
NS(=O)(=O)c1ccc(Nc2ncc3cccc(-c4ccnc(N5CCNC(=O)C5)c4)c3n2)cc1 [Compound 108, 4-{8-[2-(3-Oxo-piperazin-1-yl)-pyridin-4-yl]-quinazolin-2-ylamino}-benzenesulfonamide] | < 5 | < 5
NS(=O)(=O)c1ccc(Nc2ncc3cccc(C(=O)N4CCCC4)c3n2)cc1 [Compound 113, 4-[8-(Pyrrolidine-1-carbonyl)-quinazolin-2 ylamino]-benzenesulfonamide] | < 5 | 5 to 10
COCCNC(=O)c1cccc2cnc(Nc3ccc(S(N)(=O)=O)cc3)nc12 [Compound 114, 2-(4-Sulfamoyl-phenylamino)-quinazoline-8-carboxylic acid (2-methoxy-ethyl)-amide] | 5 to 10 | < 5
NS(=O)(=O)c1ccc(Nc2ncc3cccc(C(=O)NCCN4CCCC4)c3n2)cc1 [Compound 115, 2-(4-Sulfamoyl-phenylamino)-quinazoline-8-carboxylic acid (2-pyrrolidin-1-yl-ethyl)-amide] | 5 to 10 | < 5
COCCN1CCN(C(=O)c2ccc3cnc(Nc4ccc(S(N)(=O)=O)cc4)nc3c2)CC1 [Compound 116, 4-{7-[4-(2-Methoxy-ethyl)-piperazine-1-carbonyl]-quinazolin-2-ylamino}-benzenesulfonamide] | 10 to 25 | 5 to 10
CC(C)N1CCN(C(=O)c2ccc3cnc(Nc4ccc(S(N)(=O)=O)cc4)nc3c2)CC1 [Compound 118, 4-[7-(4-Isopropyl-piperazine-1-carbonyl)-quinazolin-2-ylamino]-benzenesulfonamide] | 10 to 25 | 5 to 10
CN1CCC(NC(=O)c2ccc3cnc(Nc4ccc(S(N)(=O)=O)cc4)nc3c2)CC1 [Compound 119, 2-(4-Sulfamoyl-phenylamino)-quinazoline-7-carboxylic acid (1-methyl-piperidin-4-yl)-amide] | < 5 | 5 to 10
NS(=O)(=O)c1ccc(Nc2ncc3cccc(C(=O)N4CCOCC4)c3n2)cc1 [Compound 120, 4-[8-(Morpholine-4-carbonyl)-quinazolin-2-ylamino]-benzenesulfonamide] | 5 to 10 | 5 to 10
CN1CCN(C(=O)c2cccc3cnc(Nc4ccc(S(N)(=O)=O)cc4)nc23)CC1 [Compound 121, 4-[8-(4-Methyl-piperazine-1-carbonyl)-quinazolin-2-ylamino]-benzenesulfonamide] | < 5 | 5 to 10
NS(=O)(=O)c1ccc(Nc2ncc3cccc(C(=O)N4CCS(=O)(=O)CC4)c3n2)cc1 [Compound 122, 4-[8-(1,1-Dioxo-1lambda*6*- thiomorpholine-4-carbonyl)-quinazolin-2-ylamino]-benzenesulfonamide] | 10 to 25 | 5 to 10
CN1CCN(C(=O)c2ccc3cnc(Nc4ccc(S(N)(=O)=O)cc4)nc3c2)CC1 [Compound 135, 4-[7-(4-Methyl-piperazine-1-carbonyl)-quinazolin-2-ylamino]-benzenesulfonamide] | 10 to 25 | 5 to 10
NS(=O)(=O)c1ccc(Nc2ncc3cccc(C(=O)NC4CCCNC4)c3n2)cc1 (stereo not drawn) [Compound 140, 2-(4-Sulfamoyl-phenylamino)-quinazoline-8-carboxylic acid piperidin-3-ylamide] | < 5 | 5 to 10
CN(C)[C@@H]1CCN(C(=O)c2cccc3cnc(Nc4ccc(S(N)(=O)=O)cc4)nc23)C1 [Compound 141, 4-[8-((R)-3-Dimethylamino-pyrrolidine-1-carbonyl)-quinazolin-2-ylamino]-benzenesulfonamide] | < 5 | 5 to 10
NS(=O)(=O)c1ccc(Nc2ncc3cccc(C(=O)NC4CCNCC4)c3n2)cc1 [Compound 142, 2-(4-Sulfamoyl-phenylamino)-quinazoline-8-carboxylic acid piperidin-4-ylamide] | < 5 | 5 to 10
